# Values of other authors in US11173140B2, “Dosing regimens of PKC activators” (COGNITIVE RESEARCH ENTERPRISES, INC., priority 2015, dated 2021).
# Like-named read-outs stand apart in the source and are kept apart here.
# How the values were obtained:
# PKC [1] = settings: cited from earlier work
# PKC [2] = settings: cited from earlier work; remark: listed apart in the source
# PKC [3] = settings: competition with [3H] phorbol dibutyrate; read-out: Ki, binding to PKC; cited from earlier work
# NCI 60 cell line screen = settings: NCI 60 cell lines; cited from earlier work
# [4] = A-ring bryologs, read-out: affinity for PKC
compound,measurement,setting,value
CCCCCCCC(=O)O[C@H]1/C(=C/C(=O)OC)C[C@H]2C[C@H](CO)OC(=O)C[C@H](O)C[C@@H]3CCC[C@H](C[C@@H]4CCO[C@H](/C=C/C(C)(C)[C@]1(O)O2)O4)O3 [Analog 1],affinity for PKC (in words),PKC [1],highest affinity
same,Ki,PKC [1]; read-out: PKC Affin,0.25 nM
"CCC1CC1CC1CC1CC1CC1CC1CC1CC1CC1CC1CC1CCC(=O)OC (stereo not shown) [DHA-CP6, cyclopropanated docosahexaenoic acid methyl ester]",effective concentration,PKC [2],10 nM
"CC1=C[C@]23C(=O)[C@@H](C=C(COC(=O)c4ccccc4)[C@@H](O)[C@]2(O)[C@H]1OC(=O)c1ccccc1)[C@H]1[C@@H](C[C@H]3C)C1(C)C [Ingenol 3,20-dibenzoate]",Ki,PKC [3],240 nM
CC1=CC[C@H](C)C(C)(C)[C@@H]1/C=C/C(C)=C/CC[C@@]1(CO)[C@H](CCCO)/C(=C(/C)C=O)CC[C@]1(C)O [Iripallidal],GI50 (concentration required to inhibit growth by 50%),NCI 60 cell line screen,micromolar to nanomolar range
CCCCCCCC(=O)OC1C(=CC(=O)OC)CC2CC(CO)OC(=O)CC(O)CCOC(C(C)(C)C)CC3CCOC(C=CC(C)(C)C1(O)O2)O3 (stereo not shown) [bryolog 3],Ki,PKC [1]; [4],6.5 nM
CCCCCCCC(=O)OC1C(=CC(=O)OC)CC2CC(CO)OC(=O)CC(O)CCOC(c3ccccc3)CC3CCOC(C=CC(C)(C)C1(O)O2)O3 (stereo not shown) [bryolog 4],Ki,PKC [1]; [4],2.3 nM
